Reference: patent US8815909B2, “Diaminocyclohexane compounds and uses thereof” (Bristol-Myers Squibb Company, priority 2011, dated 2014)

Biological target: T1, human Y4 receptor (Homo sapiens, UniProt P50391)
T1 construct: expressed in transfected cells
Assay: NPY4 cAMP HTRF Agonist Assay (inhibitory cAMP assay, Gi activation by Y4 agonism)
Assay type: cell-based
Details: TABLE 2, R2 is Phenyl-CN; read-out: hY4 CAMP EC50
Procedure, shortened: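 CHO cells stably expressing human Y4, 5000/well, exposed to compound with forskolin and IBMX in PBS for 30 min at room temperature. Gi-mediated inhibition of cAMP then measured by HTRF after 1 h with d2-conjugate and anti-cAMP cryptate.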

T1 sequence (P50391 whole entry): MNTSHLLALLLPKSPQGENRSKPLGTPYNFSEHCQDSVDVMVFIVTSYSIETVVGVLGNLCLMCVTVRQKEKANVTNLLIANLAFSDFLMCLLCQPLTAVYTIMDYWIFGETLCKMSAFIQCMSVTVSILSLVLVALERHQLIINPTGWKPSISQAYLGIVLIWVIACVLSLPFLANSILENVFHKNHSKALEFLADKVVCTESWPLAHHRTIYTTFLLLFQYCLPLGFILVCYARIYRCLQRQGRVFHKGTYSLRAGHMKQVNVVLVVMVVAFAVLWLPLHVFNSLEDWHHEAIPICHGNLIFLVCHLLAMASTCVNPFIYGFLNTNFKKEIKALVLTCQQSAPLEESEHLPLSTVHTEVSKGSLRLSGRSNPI

Row | Structure (SMILES) | EC50
1 | N#Cc1ccc(N2CCC[C@H](N[C@@H]3CCCC[C@H]3Nc3cn(-c4ccc(OC(F)(F)F)cc4)nn3)C2)cc1 [Example 202] | 774 nM
2 | COC(=O)c1cccn1-c1ccnc(N[C@@H]2CCCC[C@H]2N[C@H]2CCCN(c3ccc(C#N)cc3)C2)c1 [Example 204] | 147 nM
3 | CCOC(=O)Nc1cccc(-c2cnc(N[C@@H]3CCCC[C@H]3N[C@H]3CCCN(c4ccc(C#N)cc4)C3)o2)c1 [Example 205] | 0.2 nM
4 | N#Cc1ccc(N2CCC[C@H](N[C@@H]3CCCC[C@H]3Nc3cc(-n4ccc(C(F)(F)F)n4)ccn3)C2)cc1 [Example 206] | 440 nM
5 | CC(C)(O)c1cccc(-c2cnc(N[C@@H]3CCCC[C@H]3N[C@H]3CCCN(c4ccc(C#N)cc4)C3)o2)c1 [Example 207] | 39 nM
6 | N#Cc1ccc(N2CCC[C@H](N[C@@H]3CCCC[C@H]3Nc3cc(-n4cncn4)ccn3)C2)cc1 [Example 208] | 231 nM
7 | N#Cc1ccc(N2C[C@@H]3C[C@H](N[C@@H]4CCCC[C@H]4Nc4ncc(-c5ccccc5F)o4)[C@H]2C3)cc1 [Example 223] | 5 nM
8 | N#Cc1ccc(N2C[C@@H]3C[C@H](N[C@@H]4CCCC[C@H]4Nc4ncc(-c5ccccc5OC(F)(F)F)o4)[C@H]2C3)cc1 [Example 224] | 2 nM
9 | N#Cc1ccc(N2C[C@@H]3C[C@H](N[C@@H]4CCCC[C@H]4Nc4ncc(-c5ccc(O)cc5)o4)[C@H]2C3)cc1 [Example 225] | 54 nM
10 | N#Cc1ccc(N2CCC[C@H](N[C@@H]3CCCC[C@H]3Nc3ncc(-c4ccccc4OC(F)(F)F)o3)C2)cc1 [Example 226] | 5 nM
11 | N#Cc1ccc(N2C[C@@H]3C[C@H](N[C@@H]4CCCC[C@H]4Nc4cc(-c5ccc(OC(F)F)cc5)ccn4)[C@H]2C3)cc1 [Example 227] | 16 nM

Next, values leading:

Row | EC50 | Structure (SMILES)
12 | 5 nM | COC(=O)Nc1cccc(-c2ccnc(N[C@@H]3CCCC[C@H]3N[C@H]3CCCN(c4ccc(C#N)cc4)C3)c2)c1 [Example 201]
13 | 211 nM | COC(=O)c1ccccc1-c1ccnc(N[C@@H]2CCCC[C@H]2N[C@H]2CCCN(c3ccc(C#N)cc3)C2)c1 [Example 203]
14 | 83 nM | N#Cc1ccc(N2CCC[C@H](N[C@@H]3CCCC[C@H]3Nc3cc(-c4cccc5cn[nH]c45)ccn3)C2)cc1 [Example 209]
15 | 640 nM | N#Cc1ccc(N2CCC[C@H](N[C@@H]3CCCC[C@H]3Nc3cc(-c4ccc5[nH]ncc5c4)ccn3)C2)cc1 [Example 210]
16 | 22 nM | N#Cc1ccc(N2CCC[C@H](N[C@@H]3CCCC[C@H]3Nc3cc(-c4cccc5[nH]ncc45)ccn3)C2)cc1 [Example 211]
17 | 13 nM | N#Cc1ccc(N2CCC[C@H](N[C@@H]3CCCC[C@H]3Nc3cc(-c4cccc5c4CC(=O)N5)ccn3)C2)cc1 [Example 212]
18 | 183 nM | N#Cc1ccc(N2CCC[C@H](N[C@@H]3CCCC[C@H]3Nc3cc(-c4cccc5c4NC(=O)C5)ccn3)C2)cc1 [Example 213]
19 | 964 nM | N#Cc1ccc(N2CCC[C@H](N[C@@H]3CCCC[C@H]3Nc3cc(Cc4ccn[nH]4)ccn3)C2)cc1 [Example 214]
20 | 215 nM | N#Cc1ccc(N2CCC[C@H](N[C@@H]3CCCC[C@H]3Nc3cc(-c4ccc5cn[nH]c5c4)ccn3)C2)cc1 [Example 215]
21 | 189 nM | N#Cc1ccc(N2CCC[C@H](N[C@@H]3CCCC[C@H]3Nc3cc(-c4cncc5ccccc45)ccn3)C2)cc1 [Example 216]
22 | 478 nM | N#Cc1ccc(N2CCC[C@H](N[C@@H]3CCCC[C@H]3Nc3cc(-c4cnc5ccccc5c4)ccn3)C2)cc1 [Example 217]
23 | 302 nM | N#Cc1ccc(N2CCC[C@H](N[C@@H]3CCCC[C@H]3Nc3cc(-c4ccc(CO)cc4)ccn3)C2)cc1 [Example 218]
24 | 45 nM | COc1ccc(-c2ccnc(N[C@@H]3CCCC[C@H]3N[C@H]3CCCN(c4ccc(C#N)cc4)C3)c2)cc1 [Example 219]
25 | 77 nM | N#Cc1ccc(N2CCC[C@H](N[C@@H]3CCCC[C@H]3Nc3cc(-c4ccc5nccnc5c4)ccn3)C2)cc1 [Example 221]
26 | 46 nM | COc1ccc(-c2ccnc(N[C@@H]3CCCC[C@H]3N[C@H]3CCCN(c4ccc(C#N)cc4)C3)c2)cn1 [Example 222]
